Reference: ChEMBL document CHEMBL5143628, “Enteroviral replication inhibition by N-Alkyl triazolopyrimidinone derivatives through a non-capsid binding mode” (Bioorg Med Chem Lett, 2022)
Active and inactive are the calls of the source. No cut-off for these calls is given here.

Legend:
[1] = Antiviral activity against Human rhinovirus A71 infected in human H1-HeLa cells assessed as reduction in virus induced cytopathic effect incubated for 3 days by MTT assay; assay type: functional, cell-based; conditions: Rhinovirus A, H1-HeLa, 72 h
[2] = Selectivity index, ratio of CC50 for cytotoxicity against human H1-HeLa cells to EC50 for antiviral activity against Human rhinovirus A71 infected in human H1-HeLa cells; assay type: toxicity, cell-based; conditions: H1-HeLa cells, read-out: Ratio CC50/EC50
rhinovirus B14 [3] = assay: Antiviral activity against Human rhinovirus B14 infected in human H1-HeLa cells assessed as reduction in virus induced cytopathic effect incubated for 3 days by MTT assay; assay type: functional, organism-based
rhinovirus A21 = assay: Antiviral activity against Human rhinovirus A21 infected in human H1-HeLa cells assessed as reduction in virus induced cytopathic effect incubated for 3 days by MTT assay; assay type: functional, organism-based
[4] = Cytotoxicity against human H1-HeLa cells assessed as reduction in cell viability by MTT assay; assay type: toxicity, cell-based; conditions: H1-HeLa cells
rhinovirus B14 [5] = assay: Antiviral activity against Human rhinovirus B14 infected in human H1-HeLa cells assessed as reduction in viral titre at 0.1 uM pretreated for 1 hr followed by viral infection and measured after 6 hrs by time-of-addition assay; assay type: functional, organism-based
rhinovirus A16 = assay: Antiviral activity against Human rhinovirus 16 infected in human H1-HeLa cells assessed as reduction in virus induced cytopathic effect incubated for 3 days by MTT assay; assay type: functional, organism-based; conditions: Rhinovirus A, 72 h
[6] = Half life in Sprague-Dawley rat at 10 mg/kg, po by LC/MS/MS analysis; assay type: ADME, organism-based; conditions: in vivo
Coxsackievirus B1 = assay: Antiviral activity against Human coxsackievirus B1 infected in human H1-HeLa cells assessed as reduction in virus induced cytopathic effect incubated for 2 days by MTT assay; assay type: functional, organism-based; conditions: Enterovirus B, 48 h
CYP2C19 = CYP2C19 (Homo sapiens, UniProt P33261); assay: Inhibition of human CYP2C19 at 10 uM incubated for 20 mins in presence of NADPH regenerating system by luminescence assay relative to control; assay type: ADME
CYP2C19, sequence (P33261 whole entry): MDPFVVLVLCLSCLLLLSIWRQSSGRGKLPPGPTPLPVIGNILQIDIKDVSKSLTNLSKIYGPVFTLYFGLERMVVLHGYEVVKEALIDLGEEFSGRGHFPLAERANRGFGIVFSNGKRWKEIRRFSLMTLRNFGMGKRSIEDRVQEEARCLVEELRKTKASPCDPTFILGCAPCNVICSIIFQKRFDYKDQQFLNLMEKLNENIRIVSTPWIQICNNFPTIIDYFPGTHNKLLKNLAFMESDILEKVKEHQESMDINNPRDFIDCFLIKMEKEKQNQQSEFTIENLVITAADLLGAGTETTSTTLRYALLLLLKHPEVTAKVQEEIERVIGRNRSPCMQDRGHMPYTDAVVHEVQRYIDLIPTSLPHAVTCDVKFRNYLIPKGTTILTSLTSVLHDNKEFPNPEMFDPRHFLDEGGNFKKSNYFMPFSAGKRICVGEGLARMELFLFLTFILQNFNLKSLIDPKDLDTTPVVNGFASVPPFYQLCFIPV

[7] = Cytotoxicity against human H1-HeLa cells transfected with Enterovirus A71 replicon RNAs assessed as reduction in cell viability by CellTiter-Glo luminescent cell viability assay; assay type: toxicity, cell-based
[8] = AUClast in Sprague-Dawley rat at 10 mg/kg, po by LC/MS/MS analysis; assay type: ADME, organism-based; set-up: time 0 - last, dose 10 mg/kg, route po; conditions: in vivo
Poliovirus 3 = assay: Antiviral activity against Human poliovirus 3 infected in human H1-HeLa cells assessed as reduction in virus induced cytopathic effect incubated for 2 days by MTT assay; assay type: functional, organism-based; conditions: Enterovirus C, 48 h
[9] = Selectivity index, ratio of CC50 for cytotoxicity against human H1-HeLa cells to EC50 for antiviral activity against Human rhinovirus A21 infected in human H1-HeLa cells; assay type: toxicity, cell-based
[10] = Antiviral activity against Human rhinovirus 42 infected in human H1-HeLa cells assessed as reduction in virus induced cytopathic effect incubated for 3 days by MTT assay; assay type: functional, cell-based; conditions: Rhinovirus B, 72 h
rhinovirus A1B = assay: Antiviral activity against Rhinovirus A1B infected in human H1-HeLa cells assessed as reduction in virus induced cytopathic effect incubated for 3 days by MTT assay; assay type: functional, organism-based; conditions: Rhinovirus A, 72 h
rhinovirus B86 = assay: Antiviral activity against Human rhinovirus 86 infected in human H1-HeLa cells assessed as reduction in virus induced cytopathic effect incubated for 3 days by MTT assay; assay type: functional, organism-based; conditions: Rhinovirus B, 72 h
Rhinovirus B [11] = assay: Antiviral activity against Rhinovirus B91 infected in human H1-HeLa cells assessed as reduction in virus induced cytopathic effect incubated for 3 days by MTT assay; assay type: functional, organism-based; conditions: Rhinovirus B, 91, H1-HeLa, 72 h
[12] = Selectivity index, ratio of CC50 for cytotoxicity against human H1-HeLa cells to EC50 for antiviral activity against Human rhinovirus B14 infected in human H1-HeLa cells; assay type: toxicity, cell-based
[13] = Inhibition of Enterovirus A71 replicon RNA transfected in human H1-HeLa cells assessed as reduction in replication measured after 8 hrs by One-Glo luciferase assay; assay type: cell-based; conditions: Enterovirus A
[14] = AUCinfinity in Sprague-Dawley rat at 10 mg/kg, po by LC/MS/MS analysis; assay type: ADME, organism-based; set-up: time infinity, dose 10 mg/kg, route po; conditions: in vivo
CYP3A4 = CYP3A4 (Homo sapiens, UniProt P08684); assay: Inhibition of human CYP3A4 at 10 uM incubated for 20 mins in presence of NADPH regenerating system by luminescence assay relative to control; assay type: ADME
CYP3A4, sequence (P08684 whole entry): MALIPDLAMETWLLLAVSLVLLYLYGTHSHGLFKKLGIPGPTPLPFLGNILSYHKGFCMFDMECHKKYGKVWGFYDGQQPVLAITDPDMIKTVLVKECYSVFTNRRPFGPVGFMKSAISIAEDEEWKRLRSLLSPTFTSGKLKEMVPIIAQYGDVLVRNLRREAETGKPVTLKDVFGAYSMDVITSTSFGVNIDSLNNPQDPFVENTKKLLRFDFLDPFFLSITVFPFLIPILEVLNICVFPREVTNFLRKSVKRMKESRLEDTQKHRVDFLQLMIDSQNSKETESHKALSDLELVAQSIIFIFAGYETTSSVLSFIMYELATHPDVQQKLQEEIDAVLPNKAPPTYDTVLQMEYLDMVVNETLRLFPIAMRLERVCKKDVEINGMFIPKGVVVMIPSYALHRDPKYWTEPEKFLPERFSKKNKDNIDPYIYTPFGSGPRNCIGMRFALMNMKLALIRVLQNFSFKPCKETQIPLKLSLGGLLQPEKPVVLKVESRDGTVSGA

Rhinovirus B [15] = assay: Antiviral activity against Rhinovirus B27 infected in human H1-HeLa cells assessed as reduction in virus induced cytopathic effect incubated for 3 days by MTT assay; assay type: functional, organism-based; conditions: Rhinovirus B, 27, H1-HeLa, 72 h
CYP2C9 = CYP2C9 (Homo sapiens, UniProt P11712); assay: Inhibition of human CYP2C9 at 10 uM incubated for 20 mins in presence of NADPH regenerating system by luminescence assay relative to control; assay type: ADME
CYP2C9, sequence (P11712 whole entry): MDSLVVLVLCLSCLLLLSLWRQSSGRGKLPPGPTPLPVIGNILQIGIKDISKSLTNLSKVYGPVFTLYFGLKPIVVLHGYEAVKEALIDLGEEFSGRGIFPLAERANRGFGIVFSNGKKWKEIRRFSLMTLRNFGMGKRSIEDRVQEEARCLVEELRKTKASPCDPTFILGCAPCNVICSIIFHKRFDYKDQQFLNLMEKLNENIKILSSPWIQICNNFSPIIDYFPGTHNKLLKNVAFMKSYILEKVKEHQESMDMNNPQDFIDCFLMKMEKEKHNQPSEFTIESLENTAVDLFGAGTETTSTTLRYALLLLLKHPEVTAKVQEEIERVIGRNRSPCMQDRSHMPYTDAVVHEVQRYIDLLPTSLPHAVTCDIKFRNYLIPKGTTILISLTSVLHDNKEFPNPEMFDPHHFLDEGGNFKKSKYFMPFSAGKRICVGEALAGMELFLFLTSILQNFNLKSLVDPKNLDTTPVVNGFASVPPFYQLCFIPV

[16] = Metabolic stability in pooled human liver microsomes at 1 uM incubated for 30 mins in presence of NADPH regenerating system by LC/MS/MS analysis; assay type: ADME, Microsome; conditions: 0.5 h
Rhinovirus A [17] = assay: Antiviral activity against Rhinovirus A98 infected in human H1-HeLa cells assessed as reduction in virus induced cytopathic effect incubated for 3 days by MTT assay; assay type: functional, cell-based; conditions: Rhinovirus A, 98, H1-HeLa, 72 h
[18] = Metabolic stability in pooled rat liver microsomes at 1 uM incubated for 30 mins in presence of NADPH regenerating system by LC/MS/MS analysis; assay type: ADME, Microsome; conditions: 0.5 h
Rhinovirus A [19] = assay: Antiviral activity against Rhinovirus A33 infected in human H1-HeLa cells assessed as reduction in virus induced cytopathic effect incubated for 3 days by MTT assay; assay type: functional, cell-based; conditions: Rhinovirus A, 33, H1-HeLa, 72 h
CYP2D6 = CYP2D6 (Homo sapiens, UniProt P10635); assay: Inhibition of human CYP2D6 at 10 uM incubated for 20 mins in presence of NADPH regenerating system by luminescence assay relative to control; assay type: ADME
CYP2D6, sequence (P10635 whole entry): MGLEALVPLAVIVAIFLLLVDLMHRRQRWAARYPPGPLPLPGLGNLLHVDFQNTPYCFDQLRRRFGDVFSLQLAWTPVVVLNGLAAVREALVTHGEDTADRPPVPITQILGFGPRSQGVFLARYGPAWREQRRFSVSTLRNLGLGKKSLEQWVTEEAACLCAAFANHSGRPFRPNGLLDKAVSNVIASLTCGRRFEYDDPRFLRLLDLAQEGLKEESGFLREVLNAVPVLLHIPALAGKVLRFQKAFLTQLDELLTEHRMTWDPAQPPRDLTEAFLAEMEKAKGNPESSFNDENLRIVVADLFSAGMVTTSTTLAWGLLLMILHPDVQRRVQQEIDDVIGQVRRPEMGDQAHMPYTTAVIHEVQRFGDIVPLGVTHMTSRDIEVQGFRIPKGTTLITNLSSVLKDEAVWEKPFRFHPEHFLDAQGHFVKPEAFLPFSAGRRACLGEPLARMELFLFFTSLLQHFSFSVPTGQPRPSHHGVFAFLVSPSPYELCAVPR

rhinovirus A2 = assay: Antiviral activity against Human rhinovirus 2 infected in human H1-HeLa cells assessed as reduction in virus induced cytopathic effect incubated for 3 days by MTT assay; assay type: functional, organism-based; conditions: Rhinovirus A, 72 h
[20] = Tmax in Sprague-Dawley rat at 10 mg/kg, po by LC/MS/MS analysis; assay type: ADME, organism-based; conditions: in vivo
CYP1A2 = molecular target: T1, CYP1A2 (Homo sapiens, UniProt P05177); assay: Inhibition of human CYP1A2 at 10 uM incubated for 20 mins in presence of NADPH regenerating system by luminescence assay relative to control; assay type: ADME
T1 sequence (P05177 whole entry): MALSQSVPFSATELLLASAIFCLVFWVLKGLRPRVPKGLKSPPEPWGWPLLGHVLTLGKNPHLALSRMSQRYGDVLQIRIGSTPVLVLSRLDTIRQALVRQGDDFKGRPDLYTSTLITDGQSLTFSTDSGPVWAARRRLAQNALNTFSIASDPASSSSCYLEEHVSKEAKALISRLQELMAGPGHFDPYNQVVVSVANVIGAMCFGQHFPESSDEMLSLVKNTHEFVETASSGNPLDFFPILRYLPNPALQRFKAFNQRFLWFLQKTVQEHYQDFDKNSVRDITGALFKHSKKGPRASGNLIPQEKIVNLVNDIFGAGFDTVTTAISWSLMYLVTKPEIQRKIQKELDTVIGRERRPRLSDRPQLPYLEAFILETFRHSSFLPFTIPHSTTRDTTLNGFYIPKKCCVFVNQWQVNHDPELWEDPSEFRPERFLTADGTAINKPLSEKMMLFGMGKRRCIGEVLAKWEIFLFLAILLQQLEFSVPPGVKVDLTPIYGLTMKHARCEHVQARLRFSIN

[21] = Cmax in Sprague-Dawley rat at 10 mg/kg, po by LC/MS/MS analysis; assay type: ADME, organism-based; set-up: dose 10 mg/kg, route po; conditions: in vivo
rhinovirus B14 [22] = assay: Antiviral activity against Human rhinovirus B14 infected in human H1-HeLa cells assessed as reduction in viral titre at early stage at 10 uM pretreated for 1 hr followed by viral infection and measured after 9 hrs by time-of-addition assay; assay type: functional, organism-based
rhinovirus B14 [23] = assay: Antiviral activity against Human rhinovirus B14 infected in human H1-HeLa cells assessed as reduction in viral replication by measuring viral titre measured 3 days post infection by crystal violet staining based plaque reduction assay; assay type: functional, organism-based; conditions: dose 1.1-30 µM, time 3.0 day, DDE = dose-dependent effect

## CC(C)(C)C1CCc2c(sc3c2c(=O)n(C2CCCC2)c2nncn32)C1 (stereo not given)
[1]
  EC50: 12100 nM
[2]
  selectivity ratio: > 8.2
Rhinovirus B14 [3]; Rhinovirus B, H1-HeLa, 72 h
  EC50: > 100000 nM
Rhinovirus A21; Rhinovirus A, H1-HeLa, 72 h
  EC50: > 100000 nM
[4]
  CC50: > 100000 nM

## CCOC(=O)/C=C/[C@H](CC1CCNC1=O)NC(=O)[C@@H](CC(=O)[C@@H](NC(=O)c1cc(C)on1)C(C)C)Cc1ccc(F)cc1 (stereo not given in full)
Rhinovirus B14 [5]
  Activity: Active

## CCCn1c(=O)c2c3c(sc2n2cnnc12)CC(C(C)(C)C)CC3 (stereo in doubt) [listing 1 of 2 here]
[1]
  EC50: 1600 nM
Rhinovirus A16
  EC50: 1900 nM
[6]
  half-life: 8.89 h
Coxsackievirus B1
  EC50: 19800 nM
CYP2C19
  inhibition at 20 min, 10 µM: 7.19%
[2]
  selectivity ratio: 33.2
[7]
  CC50: > 30000 nM
[8]
  AUC(0-t): 180 ng·h/mL
Poliovirus 3
  EC50: 1670 nM
[9]
  Ratio CC50/EC50: 42.2
[10]
  EC50: 1600 nM
Rhinovirus A1B
  EC50: 1900 nM
Rhinovirus B86
  EC50: 1500 nM
Rhinovirus B14 [3]; h1-hela
  EC50: 1800 nM
Rhinovirus B [11]
  EC50: 1700 nM
[12]
  Ratio CC50/EC50: 37.2
Rhinovirus A21; h1-hela
  EC50: 2000 nM
[13]
  IC50: 1700 nM
[14]
  AUC(0-inf): 200 ng·h/mL
CYP3A4
  inhibition at 20 min, 10 µM: 3.24%
Rhinovirus B [15]
  EC50: 1600 nM
CYP2C9
  inhibition at 20 min, 10 µM: 11.9%
[16]
  Stability: Stable
Rhinovirus A [17]
  EC50: 1900 nM
[18]
  Stability: Stable
Rhinovirus A [19]
  EC50: 1500 nM
CYP2D6
  inhibition at 20 min, 10 µM: 1.26%
[4]
  CC50: 77100 nM
Rhinovirus A2
  EC50: 1900 nM
[20]
  Tmax: 3.5 h
CYP1A2
  inhibition at 20 min, 10 µM: 7.46%
[21]
  Cmax: 20 ng/mL

## CCCn1c(=O)c2c3c(sc2n2cnnc12)CC(C(C)(C)C)CC3 (stereo in doubt) [listing 2 of 2 here]
Rhinovirus B14 [22]
  Activity: Active
Rhinovirus B14 [23]
  Activity: Dde
